Structures are written as SMILES. Calls of active or inactive are those of the source. The rule behind the calls is not given here. Bounds are passed on as bounds.

Test [1] addresses T1, Cytosolic phospholipase A2 (Homo sapiens, UniProt P47712).
T1 sequence (P47712 whole entry): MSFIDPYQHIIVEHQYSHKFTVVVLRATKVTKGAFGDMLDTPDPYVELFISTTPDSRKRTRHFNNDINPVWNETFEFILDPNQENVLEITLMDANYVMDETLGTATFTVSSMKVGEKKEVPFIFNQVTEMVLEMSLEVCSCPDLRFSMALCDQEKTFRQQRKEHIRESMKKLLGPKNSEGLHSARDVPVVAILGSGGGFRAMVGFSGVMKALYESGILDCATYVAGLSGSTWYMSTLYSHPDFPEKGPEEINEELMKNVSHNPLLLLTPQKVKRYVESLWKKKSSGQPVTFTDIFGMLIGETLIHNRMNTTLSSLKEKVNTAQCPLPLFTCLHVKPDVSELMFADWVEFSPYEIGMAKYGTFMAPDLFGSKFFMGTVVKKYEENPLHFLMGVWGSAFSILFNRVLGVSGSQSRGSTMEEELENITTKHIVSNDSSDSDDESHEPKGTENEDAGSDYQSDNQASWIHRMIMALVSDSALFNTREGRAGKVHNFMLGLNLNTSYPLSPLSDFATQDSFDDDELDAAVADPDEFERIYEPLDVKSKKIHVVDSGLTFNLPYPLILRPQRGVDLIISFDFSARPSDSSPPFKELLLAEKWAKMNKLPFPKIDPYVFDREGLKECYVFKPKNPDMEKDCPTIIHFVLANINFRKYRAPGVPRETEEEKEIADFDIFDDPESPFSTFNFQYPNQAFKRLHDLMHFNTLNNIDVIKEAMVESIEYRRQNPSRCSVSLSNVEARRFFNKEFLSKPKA
Nature of the test: Inhibition of cPLA2-alpha by GLU micelle assay.

The nature of test [2]: Inhibition of LTB4 production in MC9 cell line. Format: functional, cell-based. To be noted: Mus musculus.
The nature of test [3]: Inhibition of PGF2-alpha production in MC9 cell line. Format: functional, cell-based. The settings on record: Mus musculus.
The test system of test [4] is MC9. Briefly: Inhibition of PGF2-alpha production in MC9 cell line in presence of arachidonic acid. To be noted: Mus musculus. Type of test: functional, cell-based.
The nature of test [5]: Inhibition of ionophore-stimulated TXB2 production in rat whole blood. Type of test: functional, tissue-based.

What is called IC50 is the concentration that inhibits the measured activity by half. Read a high IC50 as weaker potency in that assay. Compound `CCn1c(=O)n(C/C=C/COc2ccc(C(=O)O)cc2)c(=O)n(C(c2ccccc2)c2ccccc2)c1=O` registered an IC50 in test [1] of 1.6 µM.

`O=C(O)c1ccc(OCCn2c(=O)n(-c3ccccc3)c(=O)n(C(c3ccccc3)c3ccccc3)c2=O)cc1` yielded an IC50 in test [1] greater than 50 µM.

Compound `O=C(O)c1ccc(OCCn2c(=O)on(C(c3ccccc3)c3ccccc3)c2=O)cc1` displayed an IC50 in test [1] greater than 50 µM.

As for `O=C(O)c1ccc(OCCn2c(=O)n(Cc3ccccc3)c(=O)n(C(c3ccccc3)c3ccccc3)c2=O)cc1`, it took 3.5 µM to reach half-maximal inhibition in test [1] (IC50).

In test [1], `O=C(O)c1ccc(OC/C=C/Cn2c(=O)on(CC(c3ccccc3)c3ccccc3)c2=O)cc1` showed an IC50 greater than 50 µM.

In the case of `O=C(O)c1ccc(OCCn2c(=O)on(CC(c3ccccc3)c3ccccc3)c2=O)cc1O`, the half-maximal inhibitory concentration (IC50) in test [1] is 27 µM.

The compound `CCCCn1c(=O)n(CCOc2ccc(C(=O)O)cc2)c(=O)n(C(c2ccccc2)c2ccccc2)c1=O` gave an IC50 in test [1] of 5.6 µM.

`O=C(O)c1ccc(OCCn2c(=O)n(Cc3ccccc3)c(=O)n(CC(c3ccccc3)c3ccccc3)c2=O)cc1`: half-maximal inhibition in test [1] (IC50) was put at 30 µM.

As for `C=CCn1c(=O)n(CCOc2ccc(C(=O)O)cc2)c(=O)n(C(c2ccccc2)c2ccccc2)c1=O`, 5 µM corresponded to half-maximal inhibition in test [1] (IC50).

In the case of `O=C(O)c1cccc(OCCn2c(=O)on(CC(c3ccccc3)c3ccccc3)c2=O)c1`, the concentration for half-maximal inhibition (IC50) in test [1] is greater than 50 µM.

With `O=C(O)c1ccc(OCCCn2c(=O)on(CC(c3ccccc3)c3ccccc3)c2=O)cc1`, 12.4 µM corresponded to half-maximal inhibition in test [1] (IC50).

In test [1], `O=C(O)c1ccc(OCCn2c(=O)on(CC(c3ccccc3)c3ccccc3)c2=O)cc1` came in with an IC50 of 6.7 µM.

The compound `O=C(O)c1ccc(OCCn2c(=O)on(C(Cc3ccccc3)Cc3ccccc3)c2=O)cc1` yielded an IC50 in test [1] greater than 50 µM.

In turn, `O=C(O)c1ccc(OCCCCn2c(=O)on(CC(c3ccccc3)c3ccccc3)c2=O)cc1` returned an IC50 in test [1] greater than 50 µM.

Take `C=CCn1c(=O)n(C/C=C/COc2ccc(C(=O)O)cc2)c(=O)n(C(c2ccccc2)c2ccccc2)c1=O`: in test [1], the half-inhibitory concentration (IC50) stood at 1.3 µM.

`CCn1c(=O)n(CCOc2ccc(C(=O)O)cc2)c(=O)n(C(c2ccccc2)c2ccccc2)c1=O` had an IC50 in test [1] of 7.5 µM.

Consider `O=C(O)c1ccc(OC/C=C/Cn2c(=O)n(Cc3ccccc3)c(=O)n(C(c3ccccc3)c3ccccc3)c2=O)cc1`, for which the IC50 in test [1] came to 1.3 µM; in test [2], 0.5 µM; in test [3] it was 0.8 µM; in test [5], 5.2 µM. Also, the outcome in test [4] was inactive.

Regarding `CCCCn1c(=O)n(C/C=C/COc2ccc(C(=O)O)cc2)c(=O)n(C(c2ccccc2)c2ccccc2)c1=O`, it took 2.4 µM to reach half-maximal inhibition in test [1] (IC50).

For `O=C(O)c1ccc(OCC#CCn2c(=O)on(CC(c3ccccc3)c3ccccc3)c2=O)cc1`, it took 23 µM to reach half-maximal inhibition in test [1] (IC50).

These data come from ChEMBL document CHEMBL1148667, “1,2,4-Oxadiazolidin-3,5-diones and 1,3,5-triazin-2,4,6-triones as cytosolic phospholipase A2alpha inhibitors” (Bioorg Med Chem Lett, 2006).
